These results are taken from patent US8524635B2, “Antifungal composition” (DSM IP Assets B.V., priority 2006, dated 2013).

Series [1] has as its system Fusarium oxysporum f. sp. tulipae CBS116591 and Fusarium oxysporum f. sp. tulipae Tu467. Kind of series: Tulip bulbs (Prominence) inoculated with mould spores, treated, planted in pots; infection scored at full bloom. It counts as in vivo. The note with it: for % of bulbs infected: average of 60 bulbs, control 100. The method, then:
(§1) In this example tulip bulbs of the variety Prominence were treated with a 1:1 mixture of spores of the pathogenic moulds Fusarium oxysporum f. sp. tulipae CBS116591 and Fusarium oxysporum f. sp. tulipae Tu467 by submersing the bulbs for 30 minutes in a suspension containing 50.000-100.000 spores per ml. The mould spores were obtained using well-known methods. It should be noticed that in this challenge test the effect of the compositions was tested under very severe circumstances, because a very high number of mould spores was used. In real practise, the disease pressure will be less severe.
(§2) After the inoculation with mould spores the bulbs were dried following well-known methods. 40-60 minutes after drying the bulbs were treated with the different compositions described in Table 1. The compositions were prepared according to the instructions described on the label. All compositions contained 0.1% (v/v) of the sticking agent Prolong® (Holland Fyto, The Netherlands) and the surfactant Zipper® (Asepta BV, The Netherlands) in a concentration of 1 ml/l. Subsequently, the bulbs were planted in soil in pots (10 bulbs per pot) and incubated under well known standard conditions for growing tulips.
The bulbs were examined for mould infection when the flowers were at full bloom. For each incubation the average observation of 60 bulbs is given. Statistical analysis was performed after an ASIN transformation. The LSD at P=5% was 6.50.

The test system is the same in series [2]. Description: Tulip bulb treatment as in Example 1, infected bulbs scored and grouped by ANOVA. It counts as in vivo. The note with it: control 90.0, LSD at P=5% 6.50. The method, then: as §1, §2
This example describes the results of an experiment performed as described in Example 1. Just as in the experiment performed in Example 1, the pH of all solutions was adjusted to 5.7 with KOH or K2CO3 which results in a mixture of two phosphites, KH2PO3 and K2HPO3.
The results obtained with a composition comprising 25% of a standard cocktail which is generally applied in practice are included. This standard cocktail contains the commercial products 0.5% (v/v) Captan (546 gram active ingredient per liter), 0.3% (v/v) Prochloraz (450 g/l) and 1% (v/v) Topsin M (500 g/l). The number of infected bulbs was scored and grouped using the well-known statistical method ANOVA (LSD at P=5% was 6.50).

In series [3] the test system is Fusarium oxysporum f. sp. tulipae CBS 116593. Kind of series: Wounded tulip bulbs infected after harvest, treated and stored 15 days at 24° C., visual mould growth. The note with it: 15 days storage; for Amount of non-infected bulbs (in %): control 40; for Amount of bulbs with visible moulds (in %): control 60. It counts as in vivo. An excerpt:
In this experiment tulip bulbs of the variety Prominence were infected just after harvesting with a spore suspension of Fusarium oxysporum f. sp. tulipae CBS 116593 and treated with the antifungal compositions presented in Table 3. This time, the bulbs were not planted but stored. In this experiment the efficacy of the antifungal composition during the storage of the bulbs was studied.
After harvesting, the outer dry skin of the bulbs was removed and the bulbs were disinfected by applying a treatment with 4% (v/v) Glorix® for 5 minutes. The bulbs were dried and a lesion of a few millimeters was made in the surface of the bulb using a knife. The wound was infected with 15 μl of a spore suspension of Fusarium oxysporum f. sp. tulipae; this way approximately 10.000 mould spores infected the wound after which the bulbs were treated with 30 μl of the compositions described in Table 3. Twenty bulbs were treated per composition. In one experiment the treatment with the antifungal composition was applied 12 hours after infection. The bulbs were incubated for 15 days at a temperature of 24° C. after which the bulbs were examined visually on mould growth.

The subject of the next series is Helminthosporium solani. Description: Seed-potatoes naturally contaminated with silver scurf, sprayed and stored; mould growth and sporulation. It counts as in vivo. The method, then: Freshly harvested seed-potatoes naturally contaminated with silver scurf were selected for this experiment. The seed-potatoes were treated with the compositions described in Table 4. All compositions contained 0.1% (v/v) of the sticking agent Prolong® (Holland Fyto, The Netherlands) and the surfactant Zipper® (Asepta BV, The Netherlands) in a concentration of 1 ml/l. Said compositions were sprayed on the seed-potatoes using well-known methods after which the seed-potatoes were stored under standard conditions. For each composition 9×25 seed-potatoes were used; of each composition one triple set of seed-potatoes (3×25) was judged visually on mould growth after 1 month of storage (t=1), after 3 months of storage (t=3) and after 6 months of storage (t=6). The mould growth is reported as increase of surface covered with moulds (in percentage). In addition the sporulation of the moulds on the seed-potatoes was examined and scored on a scale from 0 to 4 (0=no sporulation; 4=high sporulation).

The conditions of series [4]: cited from earlier work.
In a further series the test system is most fungi. The note with it: for most fungi; cited from earlier work.
A further series relates to Fusarium oxysporum. The note with it: bulbs dipped two hours at 43.5° C.; Dekker and Langerak (1979); cited from earlier work.
Another series has as its system Fusarium mould. The note with it: Example 11 of WO 2004/067699; cited from earlier work.

In the case of copper lignosulphonate, in series [1] (conclusion from Table 1), the “effect on mould infection of tulip bulbs (in words)” value is listed as “did not lead to reduction of moulds”. Besides, in series [1] (copper lignosulphonate 2 g/l), the “% of bulbs infected” value is reported as 97%.

As for `C[C@@H]1C/C=C/C=C/C=C/C=C/[C@H](O[C@@H]2O[C@H](C)[C@@H](O)[C@H](N)[C@@H]2O)C[C@@H]2O[C@](O)(C[C@@H](O)C[C@H]3O[C@@H]3/C=C/C(=O)O1)C[C@H](O)[C@H]2C(=O)O` [natamycin], the figures for the “% of bulbs infected” value in series [1] (natamycin 0.2 g/l) and in series [1] (natamycin 0.5 g/l) were 88% and 90%, respectively. The “Score (mould infection of tulip bulbs)” value was determined as 76.0 in series [2] (200 ppm natamycin) and 75.0 in series [2] (500 ppm natamycin). Further, the “Amount of non-infected bulbs (in %)” value in series [3] (500 ppm natamycin) is given as 60%. Besides, the “Amount of bulbs with visible moulds (in %)” value in series [3] (500 ppm natamycin) turned out to be 40%. Moreover, the “Increase in percentage of the surface of seed-potatoes covered with mould” value in the series on Helminthosporium solani (natamycin 2000 ppm, t = 1 (1 month of storage), water control 3.8) worked out at 1.5%; in the series with Helminthosporium solani (natamycin 2000 ppm, t = 3 (3 months of storage), water control 3.4), 3.0%; in the series with Helminthosporium solani (natamycin 2000 ppm, t = 6 (6 months of storage), water control 7.8), 3.8%; in the series on Helminthosporium solani (natamycin 5000 ppm, t = 1 (1 month of storage), water control 3.8), 0.8%; in the series on Helminthosporium solani (natamycin 5000 ppm, t = 3 (3 months of storage), water control 3.4) it was 2.6%; in the series with Helminthosporium solani (natamycin 5000 ppm, t = 6 (6 months of storage), water control 7.8), 3.5%. The “Sporulation of silver scurf moulds on seed potatoes” value was 0.8 in the series on Helminthosporium solani (natamycin 2000 ppm, t = 1, scale 0 to 4, water control 2.7); 1.1 with Helminthosporium solani (natamycin 2000 ppm, t = 3, scale 0 to 4, water control 1.8); 1.8 in the series with Helminthosporium solani (natamycin 2000 ppm, t = 6, scale 0 to 4, water control 2.4); 0.6 in the series with Helminthosporium solani (natamycin 5000 ppm, t = 1, scale 0 to 4, water control 2.7); 1.2 in the series with Helminthosporium solani (natamycin 5000 ppm, t = 3, scale 0 to 4, water control 1.8); 0.7 in the series on Helminthosporium solani (natamycin 5000 ppm, t = 6, scale 0 to 4, water control 2.4). For the same compound, in series [4], the solubility in water is on record as 30-50 ppm. In the series on most fungi, the “MIC (Minimal Inhibitory Concentration)” value was “less than 10 ppm”. In addition, the “preventing the spread of Fusarium oxysporum in the water baths (in words)” value in the series on Fusarium oxysporum is listed as “as effective as organic mercury or formalin”. Further, in the series on Fusarium mould, the “yellow mould spots on leaves growing from treated tulip bulbs (in words)” value was “some yellow spots”.

Consider potassium phosphite, for which, in series [1] (potassium phosphite 20 g/l), the “% of bulbs infected” value worked out at 87%. For the same compound, the “Score (mould infection of tulip bulbs)” value in series [2] (120 mM phosphite, pH 5.7) is 72.9. The “Amount of non-infected bulbs (in %)” value in series [3] (120 mM phosphite) was determined as 50%. Further, the “Amount of bulbs with visible moulds (in %)” value in series [3] (120 mM phosphite) came out at 50%. The “Increase in percentage of the surface of seed-potatoes covered with mould” value was found to be 2.5% with Helminthosporium solani (phosphite 120 mM, t = 1 (1 month of storage), water control 3.8); 4.0% with Helminthosporium solani (phosphite 120 mM, t = 3 (3 months of storage), water control 3.4); 6.9% with Helminthosporium solani (phosphite 120 mM, t = 6 (6 months of storage), water control 7.8). Besides, the “Sporulation of silver scurf moulds on seed potatoes” value with Helminthosporium solani (phosphite 120 mM, t = 1, scale 0 to 4 (0=no sporulation; 4=high sporulation), water control 2.7) is 1.3; with Helminthosporium solani (phosphite 120 mM, t = 3, scale 0 to 4, water control 1.8), 1.0; in the series on Helminthosporium solani (phosphite 120 mM, t = 6, scale 0 to 4, water control 2.4) it was 1.3.
